Each structure is given as a SMILES string.

In general, IC50 refers to the point on the concentration scale where inhibition reaches its midpoint. Low readings indicate greater potency, high ones weaker potency.

The target in the assay is Alpha glucosidase (Homo sapiens, UniProt O43451+P10253+P14410+Q2M2H8). The assay can be described thus: Inhibition of alpha-glucosidase (unknown origin) using p-nitrophenyl-alpha-d-glucopyranoside as substrate preincubated for 15 mins followed by substrate addition measured after 30 mins. The assay is classed as protein assay.
With `COc1ccc(-c2csc(N/N=C3\C(=O)N(C)c4ccccc43)n2)cc1`, the IC50 fell in the range of 5.3 to 35 µM.

`COc1ccc(-c2csc(NC(=O)CSc3nnc(-c4ccccc4)c(-c4ccccc4)n3)n2)cc1` displayed an IC50 of 2.8 to 14 µM.

In the case of `O=C(CSc1nnc(-c2ccccc2)c(-c2ccccc2)n1)Nc1nc(-c2ccc(Cl)cc2)cs1`, the 50% inhibitory concentration (IC50) fell in the range of 2.8 to 14 µM.

For `O=C(CSc1nnc(-c2ccccc2)c(-c2ccccc2)n1)Nc1nc(-c2ccccc2)cs1`, the half-maximal inhibitory concentration (IC50) was in the range of 2.8 to 14 µM.

The compound `O=c1ccc2ccc(OCC(O)CSc3nnc(-c4ccccc4)c(-c4ccccc4)n3)cc2o1` (configuration not stated) returned an IC50 of 32 to 148 µM.

On to `Cn1cc(C2(c3cn(C)c4ccccc34)C(=O)Nc3ccccc32)c2ccccc21`, for which the concentration for half-maximal inhibition (IC50) is 5.9 to 145 µM.

`COc1cc(Br)ccc1O[C@H](C)Cn1cc(-c2ccc(F)cc2)nn1`: the IC50 fell in the range of 14 to 218 µM.

The compound `O=C(CSc1nnc(-c2ccc(F)cc2)c(-c2ccc(F)cc2)n1)Nc1nc(-c2ccccc2)cs1` came in with a concentration for half-maximal inhibition (IC50) of 2.8 to 14 µM.

On to `Cc1ccc(-c2csc(N/N=C3\C(=O)Nc4ccc(F)cc43)n2)cc1`, for which the IC50 was 5.3 to 35 µM.

`Cc1ccc(C(c2c[nH]c3ccc(C(=O)NNS(=O)(=O)c4ccccc4Br)cc23)c2c[nH]c3ccc(C(=O)NNS(=O)(=O)c4ccccc4Br)cc23)cc1`: the IC50 lay in the range of 0.1 to 5.1 µM.

`Cc1ccc2c(c1)C(c1c[nH]c3ccccc13)(c1c[nH]c3ccccc13)C(=O)N2` registered an IC50 of 5.9 to 145 µM.

On to `COc1cc(-c2ccc(C)cc2)ccc1O[C@H](C)Cn1cc(-c2ccc(C(F)(F)F)cc2)nn1`, for which the IC50 is 14 to 218 µM.

Turning to `O=c1oc2ccccc2cc1OCC(O)CSc1nnc(-c2ccco2)c(-c2ccco2)n1` (configuration not stated), the IC50 is 32 to 148 µM.

As for `Cc1ccc(C(c2c[nH]c3ccc(C(=O)NNS(=O)(=O)c4cc(Cl)c(Cl)cc4Cl)cc23)c2c[nH]c3ccc(C(=O)NNS(=O)(=O)c4cc(Cl)c(Cl)cc4Cl)cc23)cc1`, the IC50 was in the range of 0.3 to 2.5 µM.

With `O=C1Nc2ccccc2C1(c1c[nH]c2ccccc12)c1c[nH]c2ccccc12`, the concentration for half-maximal inhibition (IC50) lay within 5.9 to 145 µM.

For `COc1cc(Br)ccc1O[C@H](C)Cn1cc(-c2ccccc2)nn1`, the IC50 was 14 to 218 µM.

As for `O=C1Nc2ccccc2C1(c1cn(Cc2ccccc2)c2ccccc12)c1cn(Cc2ccccc2)c2ccccc12`, the 50% inhibitory concentration (IC50) was 5.9 to 145 µM.

Regarding `Cc1ccc(C(c2c[nH]c3ccc(C(=O)NNS(=O)(=O)c4cccc(Cl)c4Cl)cc23)c2c[nH]c3ccc(C(=O)NNS(=O)(=O)c4cccc(Cl)c4Cl)cc23)cc1`, the half-maximal inhibitory concentration (IC50) is 0.1 to 5.1 µM.

Regarding `Cc1ccc2c(c1)/C(=N/Nc1nc(-c3ccc(O)cc3)cs1)C(=O)N2Cc1ccccc1F`, the half-inhibitory concentration (IC50) came to 5.3 µM. This lies in the single-digit micromolar range.

In the case of `O=C1Nc2ccccc2C1(c1cn(Cc2ccccc2F)c2ccccc12)c1cn(Cc2ccccc2F)c2ccccc12`, the half-maximal inhibitory concentration (IC50) is 5.9 µM.

Take `Cc1cc(C)c2c(c1)/C(=N/Nc1nc(-c3ccc(Br)cc3)cs1)C(=O)N2`: the IC50 lay in the range of 5.3 to 35 µM.

`Cc1ccc(-c2csc(N/N=C3\C(=O)N(Cc4ccccc4F)c4ccc(C)cc43)n2)cc1` returned a 50% inhibitory concentration (IC50) of 5.3 to 35 µM.

Turning to `Cc1ccc(C(c2c[nH]c3ccc(C(=O)NNS(=O)(=O)c4ccc([N+](=O)[O-])cc4[N+](=O)[O-])cc23)c2c[nH]c3ccc(C(=O)NNS(=O)(=O)c4ccc([N+](=O)[O-])cc4[N+](=O)[O-])cc23)cc1`, the IC50 worked out at 0.5 µM.

`Cc1ccc(C(c2c[nH]c3ccc(C(=O)NNS(=O)(=O)c4ccc(C)cc4)cc23)c2c[nH]c3ccc(C(=O)NNS(=O)(=O)c4ccc(C)cc4)cc23)cc1` showed an IC50 of 0.1 to 5.1 µM.

`Cc1ccc(-c2csc(N/N=C3\C(=O)Nc4ccccc43)n2)cc1` came in with a half-inhibitory concentration (IC50) of 5.3 to 35 µM.

Take `O=C1Nc2ccc(F)cc2/C1=N/Nc1nc(-c2ccc(F)cc2)cs1`: the IC50 was 5.3 to 35 µM.

Take `Cc1ccc2c(c1)/C(=N/Nc1nc(-c3ccc(O)cc3)cs1)C(=O)N2`: the IC50 was in the range of 5.3 to 35 µM.

On to `COc1cc(-c2ccc([N+](=O)[O-])cc2)ccc1O[C@H](C)Cn1cc(-c2ccc(C(F)(F)F)cc2)nn1`, for which the IC50 lay within 14 to 218 µM.

In turn, `O=C1Nc2ccccc2C1(c1cn(Cc2ccc(Br)cc2)c2ccccc12)c1cn(Cc2ccc(Br)cc2)c2ccccc12` showed a half-inhibitory concentration (IC50) of 5.9 to 145 µM.

For `O=c1ccc2ccc(OCC(O)CSc3nnc(-c4cccc(F)c4)c(-c4cccc(F)c4)n3)cc2o1` (configuration not stated), the IC50 lay in the range of 32 to 148 µM.

`Cc1ccc(-c2csc(N/N=C3\C(=O)Nc4c(C)cc(C)cc43)n2)cc1`: the 50% inhibitory concentration (IC50) lay within 5.3 to 35 µM.

The compound `Cc1ccc(-c2csc(N/N=C3\C(=O)N(C)c4ccccc43)n2)cc1` came in with an IC50 of 5.3 to 35 µM.

Turning to `Cc1ccc(C(c2c[nH]c3ccc(C(=O)NNS(=O)(=O)c4ccc(Br)cc4)cc23)c2c[nH]c3ccc(C(=O)NNS(=O)(=O)c4ccc(Br)cc4)cc23)cc1`, the IC50 lay within 0.1 to 5.1 µM.

Consider `COc1cc(-c2ccc(F)cc2)ccc1O[C@H](C)Cn1cc(-c2ccc(C(F)(F)F)cc2)nn1`, for which the 50% inhibitory concentration (IC50) was in the range of 14 to 218 µM.

Compound `COc1ccc(-c2ccc(O[C@H](C)Cn3cc(-c4ccc(C(F)(F)F)cc4)nn3)c(OC)c2)cc1` came in with an IC50 of 14 µM.

Compound `Cc1ccc(C(c2c[nH]c3ccc(C(=O)NNS(=O)(=O)c4ccc([N+](=O)[O-])cc4)cc23)c2c[nH]c3ccc(C(=O)NNS(=O)(=O)c4ccc([N+](=O)[O-])cc4)cc23)cc1` displayed an IC50 of 2.1 µM.

Turning to `CCCn1cc(C2(c3cn(CCC)c4ccccc34)C(=O)Nc3ccccc32)c2ccccc21`, the IC50 fell in the range of 5.9 to 145 µM.

`O=C1Nc2ccc(Br)cc2C1(c1c[nH]c2ccccc12)c1c[nH]c2ccccc12` displayed a half-maximal inhibitory concentration (IC50) of 5.9 to 145 µM.

The compound `O=C(CSc1nnc(-c2ccc(Br)cc2)c(-c2ccc(Br)cc2)n1)Nc1nc(-c2ccc(Cl)cc2)cs1` had a half-maximal inhibitory concentration (IC50) of 2.8 to 14 µM.

Compound `CC(C)Cn1cc(C2(c3cn(CC(C)C)c4ccccc34)C(=O)Nc3ccccc32)c2ccccc21` returned a 50% inhibitory concentration (IC50) of 5.9 to 145 µM.

Consider `Cc1cc(C)c2c(c1)/C(=N/Nc1nc(-c3ccc(F)cc3)cs1)C(=O)N2`, for which the IC50 fell in the range of 5.3 to 35 µM.

Regarding `Cc1ccc(-c2csc(NC(=O)CSc3nnc(-c4ccc(Br)cc4)c(-c4ccc(Br)cc4)n3)n2)cc1`, the IC50 lay in the range of 2.8 to 14 µM.

In turn, `O=c1ccc2ccc(OCC(O)CSc3nnc(-c4ccco4)c(-c4ccco4)n3)cc2o1` (configuration not stated) gave an IC50 of 32 to 148 µM.

On to `O=C1Nc2ccccc2C1(c1cn(Cc2cccc(F)c2)c2ccccc12)c1cn(Cc2cccc(F)c2)c2ccccc12`, for which the 50% inhibitory concentration (IC50) is 5.9 to 145 µM.

Compound `Cc1ccc(C(c2c[nH]c3ccc(C(=O)NNS(=O)(=O)c4cc(Cl)cc(Cl)c4)cc23)c2c[nH]c3ccc(C(=O)NNS(=O)(=O)c4cc(Cl)cc(Cl)c4)cc23)cc1` displayed an IC50 of 0.1 to 5.1 µM.

On to `COc1cc(Br)ccc1O[C@H](C)Cn1cc(-c2ccc(C(F)(F)F)cc2)nn1`, for which the IC50 was in the range of 14 to 218 µM.

`O=C(CSc1nnc(-c2ccc(Br)cc2)c(-c2ccc(Br)cc2)n1)Nc1nc(-c2ccccc2)cs1` showed a 50% inhibitory concentration (IC50) of 2.8 to 14 µM.

`Cc1ccc(C(c2c[nH]c3ccc(C(=O)NNS(=O)(=O)c4ccc(Cl)c(Cl)c4)cc23)c2c[nH]c3ccc(C(=O)NNS(=O)(=O)c4ccc(Cl)c(Cl)c4)cc23)cc1` displayed an IC50 of 0.1 to 5.1 µM.

For the compound `O=C(CSc1nnc(-c2ccc(Br)cc2)c(-c2ccc(Br)cc2)n1)Nc1nc(-c2ccc(F)cc2)cs1`, the half-maximal inhibitory concentration (IC50) lay in the range of 2.8 to 14 µM.

`O=C1Nc2ccc(Cl)cc2/C1=N/Nc1nc(-c2ccc(Br)cc2)cs1` displayed an IC50 of 5.3 to 35 µM.

Take `O=C1Nc2ccccc2/C1=N/Nc1nc(-c2ccc(F)cc2)cs1`: the IC50 is 5.3 to 35 µM.

The compound `O=C(CSc1nnc(-c2ccc(F)cc2)c(-c2ccc(F)cc2)n1)Nc1nc(-c2ccc(Cl)cc2)cs1` showed an IC50 of 2.8 to 14 µM.

In turn, `Cc1ccc(C(c2c[nH]c3ccc(C(=O)NNS(=O)(=O)c4ccccc4Cl)cc23)c2c[nH]c3ccc(C(=O)NNS(=O)(=O)c4ccccc4Cl)cc23)cc1` registered an IC50 of 0.1 to 5.1 µM.

For the compound `COC(=O)c1cn(C[C@@H](C)Oc2ccc(Br)cc2OC)nn1`, the 50% inhibitory concentration (IC50) lay in the range of 14 to 218 µM.

`O=C(CSc1nnc(-c2ccc(Br)cc2)c(-c2ccc(Br)cc2)n1)Nc1nc(-c2ccc(Br)cc2)cs1`: the 50% inhibitory concentration (IC50) was 2.8 to 14 µM.

As for `CCCCn1cc(C2(c3cn(CCCC)c4ccccc34)C(=O)Nc3ccccc32)c2ccccc21`, the half-inhibitory concentration (IC50) lay within 5.9 to 145 µM.

The compound `Cc1ccc(C(c2c[nH]c3ccc(C(=O)NNS(=O)(=O)c4cc(Cl)ccc4Cl)cc23)c2c[nH]c3ccc(C(=O)NNS(=O)(=O)c4cc(Cl)ccc4Cl)cc23)cc1` came in with an IC50 of 0.1 to 5.1 µM.

As to `O=C1Nc2ccccc2/C1=N/Nc1nc(-c2ccc(Cl)cc2)cs1`, the IC50 is 5.3 to 35 µM.

The compound `Cc1ccc(-c2csc(NC(=O)CSc3nnc(-c4ccccc4)c(-c4ccccc4)n3)n2)cc1` registered an IC50 of 2.8 to 14 µM.

Take `O=C(CSc1nnc(-c2ccc(F)cc2)c(-c2ccc(F)cc2)n1)Nc1nc(-c2ccc(Br)cc2)cs1`: the concentration for half-maximal inhibition (IC50) lay within 2.8 to 14 µM.

Consider `O=C(CSc1nnc(-c2ccccc2)c(-c2ccccc2)n1)Nc1nc(-c2ccc(F)cc2)cs1`, for which the IC50 fell in the range of 2.8 to 14 µM.

`O=C1Nc2ccccc2C1(c1cn(Cc2ccccc2Cl)c2ccccc12)c1cn(Cc2ccccc2Cl)c2ccccc12` came in with a half-maximal inhibitory concentration (IC50) of 5.9 to 145 µM.

As for `O=c1ccc2ccc(OCC(O)CSc3nnc(-c4ccc(F)cc4)c(-c4ccc(F)cc4)n3)cc2o1` (configuration not stated), the IC50 fell in the range of 32 to 148 µM.

For the compound `O=C(CSc1nnc(-c2ccc(F)cc2)c(-c2ccc(F)cc2)n1)Nc1nc(-c2ccc(F)cc2)cs1`, the concentration for half-maximal inhibition (IC50) lay within 2.8 to 14 µM.

For `Cc1ccc(C(c2c[nH]c3ccc(C(=O)NNS(=O)(=O)c4ccccc4[N+](=O)[O-])cc23)c2c[nH]c3ccc(C(=O)NNS(=O)(=O)c4ccccc4[N+](=O)[O-])cc23)cc1`, the IC50 was found to be 2.1 µM.

In turn, `CN1C(=O)/C(=N\Nc2nc(-c3ccc(F)cc3)cs2)c2ccccc21` gave an IC50 of 5.3 to 35 µM.

Regarding `CC(C)n1cc(C2(c3cn(C(C)C)c4ccccc34)C(=O)Nc3ccccc32)c2ccccc21`, the IC50 was 5.9 to 145 µM.

In turn, `O=C(CSc1nnc(-c2ccccc2)c(-c2ccccc2)n1)Nc1nc(-c2ccc(Br)cc2)cs1` gave an IC50 of 2.8 to 14 µM.

`Cc1ccc(C(c2c[nH]c3ccc(C(=O)NNS(=O)(=O)c4ccc(Cl)cc4Cl)cc23)c2c[nH]c3ccc(C(=O)NNS(=O)(=O)c4ccc(Cl)cc4Cl)cc23)cc1` returned a half-inhibitory concentration (IC50) of 0.1 to 5.1 µM.

Compound `O=c1oc2ccccc2cc1OCC(O)CSc1nnc(-c2ccc(F)cc2)c(-c2ccc(F)cc2)n1` (configuration not stated) had a half-maximal inhibitory concentration (IC50) of 32 to 148 µM.

`Cc1ccc(-c2csc(NC(=O)CSc3nnc(-c4ccc(F)cc4)c(-c4ccc(F)cc4)n3)n2)cc1` displayed an IC50 of 2.8 to 14 µM.

Turning to `O=c1oc2ccccc2cc1OCC(O)CSc1nnc(-c2cccc(Br)c2)c(-c2cccc(Br)c2)n1` (configuration not stated), the IC50 is 32 µM.

These data come from ChEMBL document CHEMBL4304757, “Synthetic heterocyclic candidates as promising α-glucosidase inhibitors: An overview” (Eur J Med Chem, 2019).
